Test results taken from article PMC8445441, “Elucidating the mechanism by which synthetic helper peptides sensitize Pseudomonas aeruginosa to multiple antibiotics” (PLoS Pathogens, 2021).
Where two headings read alike, the source gives them in different places.

Key:
P. aeruginosa HM-214 = conditions: strain HM-214; antibiotic + D-11 (MICb/MICbc 128/4)
Outline: (§1)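 MICs were determined by CLSI broth microdilution in MHB, in triplicate: two-fold drug dilutions were mixed 1:1 with bacterial suspension of ~1 × 10^6 CFU/mL and incubated 18 h at 37 °C. The MIC was the lowest concentration with no visible growth.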

P. aeruginosa AUMC-Pa-1 = conditions: strain AUMC-Pa-1; antibiotic + D-11 (MICb/MICbc 128/4)
Outline: as §1

P. aeruginosa AUMC-Pa-2 = conditions: strain AUMC-Pa-2; antibiotic + D-11 (MICb/MICbc 64/4)
Outline: as §1

P. aeruginosa NR-31041 = experiment: microbe, parasite or virus in culture; design: MICa: MIC of the antibiotic / MICac: MIC of the antibiotic in the combination: unit not given beside the values
Outline: as §1

P. aeruginosa PAK = experiment: microbe, parasite or virus in culture; design: MICa: MIC of the antibiotic / MICac: MIC of the antibiotic in the combination: unit not given beside the values
Outline: as §1

P. aeruginosa PA14 = experiment: microbe, parasite or virus in culture; design: MICa: MIC of the antibiotic / MICac: MIC of the antibiotic in the combination: unit not given beside the values; conditions: strain PA14
Outline: as §1

P. aeruginosa NR-31040 = experiment: microbe, parasite or virus in culture; design: MICa: MIC of the antibiotic / MICac: MIC of the antibiotic in the combination: unit not given beside the values
Outline: as §1

P. aeruginosa ATCC27853 = experiment: microbe, parasite or virus in culture; design: MICa: MIC of the antibiotic / MICac: MIC of the antibiotic in the combination: unit not given beside the values
Outline: as §1

[1] = test system: clinical P. aeruginosa isolates; experiment: microbe, parasite or virus in culture; conditions: Pseudomonas aeruginosa, 18 h, antibiotic alone
Outline: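 Broth microdilution per CLSI in MHB, two-fold drug dilutions mixed with an equal volume of bacteria at about 1 × 10^6 CFU/mL. After 18 h at 37 °C, MIC taken as the lowest concentration with no visible growth; run in triplicate.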

P. aeruginosa AUMC-Pa-3 = experiment: microbe, parasite or virus in culture
Outline: as §1

P. aeruginosa AUMC-Pa-6 = experiment: microbe, parasite or virus in culture; conditions: strain AUMC-Pa-6
Outline: as §1

P. aeruginosa AUMC-Pa-5 = experiment: microbe, parasite or virus in culture; conditions: strain AUMC-Pa-5
Outline: as §1

P. aeruginosa PAO1 = experiment: microbe, parasite or virus in culture; conditions: PAO1
Outline: as §1

P. aeruginosa AUMC-Pa-4 = experiment: microbe, parasite or virus in culture
Outline: as §1

[2] = antibiotic alone, unit not given
[3] = with D-11 at MICbc 4, unit not given
[4] = antibiotic + D-11 (MICb/MICbc 64/4)

MIC (P. aeruginosa NR-31041; Pseudomonas aeruginosa, NR31041, 18 h, read-out: MICa: MIC of the antibiotic): 16 µM | MICac: MIC of the antibiotic in the combination (P. aeruginosa NR-31041; strain NR-31041, with D-11 at MICbc 4, unit not given): 0.5 | MIC (P. aeruginosa PAK; Pseudomonas aeruginosa, 18 h, read-out: MICa: MIC of the antibiotic): 16 µM | MICac: MIC of the antibiotic in the combination (P. aeruginosa PAK; strain PAK, with D-11 at MICbc 4, unit not given): 0.5 | MICa: MIC of the antibiotic (P. aeruginosa PA14; [2]): 16 | MICac: MIC of the antibiotic in the combination (P. aeruginosa PA14; [3]): 1 | MIC (P. aeruginosa NR-31040; Pseudomonas aeruginosa, NR31040, 18 h, read-out: MICa: MIC of the antibiotic): 16 µM | MICac: MIC of the antibiotic in the combination (P. aeruginosa NR-31040; strain NR-31040, with D-11 at MICbc 4, unit not given): 0.125 | MIC (P. aeruginosa ATCC27853; Pseudomonas aeruginosa, ATCC27853, 18 h, read-out: MICa: MIC of the antibiotic): 16 µM | MICac: MIC of the antibiotic in the combination (P. aeruginosa ATCC27853; strain ATCC27853, with D-11 at MICbc 4, unit not given): 0.5 | MIC ([1]; read-out: Antibiotic sensibility (MIC) of clinical P. aeruginosa isolate AUMC-Pa-1, strain AUMC-Pa-1): 32 µM | MIC ([1]; read-out: Antibiotic sensibility (MIC) of clinical P. aeruginosa isolate AUMC-Pa-2, strain AUMC-Pa-2): 8 µM | MIC ([1]; read-out: Antibiotic sensibility (MIC) of clinical P. aeruginosa isolate AUMC-Pa-3, strain AUMC-Pa-3): 16 µM | MIC ([1]; read-out: Antibiotic sensibility (MIC) of clinical P. aeruginosa isolate AUMC-Pa-4, strain AUMC-Pa-4): 16 µM | MIC ([1]; read-out: Antibiotic sensibility (MIC) of clinical P. aeruginosa isolate AUMC-Pa-5, strain AUMC-Pa-5): 8 µM | MIC ([1]; read-out: Antibiotic sensibility (MIC) of clinical P. aeruginosa isolate AUMC-Pa-6, strain AUMC-Pa-6): 16 µM | MIC ([1]; read-out: Antibiotic sensibility (MIC) of clinical P. aeruginosa isolate HM-214, strain HM-214): 16 µM | MIC ([1]; read-out: Antibiotic sensibility (MIC) of clinical P. aeruginosa isolate NR-31040, strain NR-31040): 16 µM | MIC ([1]; read-out: Antibiotic sensibility (MIC) of clinical P. aeruginosa isolate NR-31041, strain NR-31041): 16 µM | MIC (P. aeruginosa AUMC-Pa-3; Pseudomonas aeruginosa, AUMCPA3, 18 h, read-out: MICa: MIC of the antibiotic): 16 µM | MICac: MIC of the antibiotic in the combination (P. aeruginosa AUMC-Pa-3; strain AUMC-Pa-3, with D-11 at MICbc 4, unit not given): 0.5 | MICa: MIC of the antibiotic (P. aeruginosa AUMC-Pa-6; [2]): 16 | MICac: MIC of the antibiotic in the combination (P. aeruginosa AUMC-Pa-6; [3]): 1 | MICa: MIC of the antibiotic (P. aeruginosa AUMC-Pa-5; [2]): 8 | MICac: MIC of the antibiotic in the combination (P. aeruginosa AUMC-Pa-5; [3]): 2 | MIC (P. aeruginosa PAO1; Pseudomonas aeruginosa, PAO1, 18 h, read-out: MICa: the MIC of antibiotics, S3 Table, antibiotic alone): 16 µM | MICac: the MIC for the antibiotic in the combination (P. aeruginosa PAO1; S3 Table, with 2 μM D-11): 0.5 µM | MICac: the MIC for the antibiotic in the combination (P. aeruginosa PAO1; S3 Table, with 4 μM D-11): 0.25 µM | MICa: the MIC of antibiotics (P. aeruginosa PAO1; S3 Table, antibiotic alone): 16 µM | MIC (P. aeruginosa AUMC-Pa-4; Pseudomonas aeruginosa, AUMCPA4, 18 h, read-out: MICa: MIC of the antibiotic): 16 µM | MICac: MIC of the antibiotic in the combination (P. aeruginosa AUMC-Pa-4; strain AUMC-Pa-4, with D-11 at MICbc 4, unit not given): 0.5
SMILES: C[C@H]1c2cccc(O)c2C(=O)C2=C(O)[C@]3(O)C(=O)C(C(N)=O)=C(O)[C@@H](N(C)C)[C@@H]3[C@@H](O)[C@@H]21 [Doxycycline]
FICI (P. aeruginosa HM-214): 0.063 | FICI (P. aeruginosa AUMC-Pa-1): 0.063 | FICI (P. aeruginosa AUMC-Pa-2): 0.188 | FICI (P. aeruginosa NR-31041; strain NR-31041, antibiotic + D-11 (MICb/MICbc 64/4)): 0.094 | FICI (P. aeruginosa PAK; strain PAK, antibiotic + D-11 (MICb/MICbc 64/4)): 0.094 | FICI (P. aeruginosa PA14; antibiotic + D-11 (MICb/MICbc 128/4)): 0.094 | FICI (P. aeruginosa NR-31040; strain NR-31040, antibiotic + D-11 (MICb/MICbc 128/4)): 0.039 | FICI (P. aeruginosa ATCC27853; strain ATCC27853, antibiotic + D-11 (MICb/MICbc 32/4)): 0.156 | FICI (P. aeruginosa AUMC-Pa-3; strain AUMC-Pa-3, antibiotic + D-11 (MICb/MICbc 128/4)): 0.063 | FICI (P. aeruginosa AUMC-Pa-6; [4]): 0.125 | FICI (P. aeruginosa AUMC-Pa-5; [4]): 0.313 | FICI (P. aeruginosa PAO1; S3 Table, antibiotic + 2 μM D-11): 0.094 | FICI (P. aeruginosa PAO1; S3 Table, antibiotic + 4 μM D-11): 0.141 | FICI (P. aeruginosa AUMC-Pa-4; strain AUMC-Pa-4, antibiotic + D-11 (MICb/MICbc 128/4)): 0.063
